Assay results published in US11339193B2, “CDP protein secretion inhibitors” (KEZAR LIFE SCIENCES, priority 2018, dated 2022).
Read-outs that look alike come from different tables or passages of the source. Peptide text beside a SMILES is read from it.

Columns and labels:
Format in all cases: cell-based
[1] = tested on: PD1-ss+10aa/Gaussia Luciferase; assay: Dox induced PD1-ss-Gluc assay; conditions: Flp-In 293 T-REx cells, doxycycline, 24 hours; read-out: PD1ss Gluc IC50
Procedure, shortened: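 Stable Flp-In 293 T-REx line expressing doxycycline-inducible Gaussia luciferase fused to the PD1 signal sequence plus 10 amino acids. Cells plated the day before, then exposed to compound dilutions in DMSO/media containing doxycycline at 37 °C, 5% CO2.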

[2] = tested on: TNFα-FL/Gaussia Luciferase; assay: Dox induced TNFα-FL-Gluc assay; conditions: Flp-In 293 T-REx cells, doxycycline, 24 hours; read-out: TNFa FL Gluc IC50
Procedure, shortened: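 Stable Flp-In 293 T-REx line expressing full-length TNFα (aa 1-233) fused at its C-terminus to Gaussia luciferase under doxycycline-inducible control. Cells plated the day before, then given compound dilutions in DMSO/media containing doxycycline and incubated at 37 °C, 5% CO2.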

FLT3ss-Gluc = assay: FLT3ss assay
Protocol: The mature domain of secreted luciferase from Gaussia princeps (GLuc) was cloned into pcDNA5/FRT/TO. The signal sequence plus four amino acids of the mature domain from FLT3 ([…]) (SEQ ID NO:7) were cloned upstream of GLuc mature domain and used in transient transfection experiment.
(§1) HEK-293T T-rex cells were cultured in Dulbecco's modified Eagle's medium with 10% FBS at 5% CO2. Cells were plated 1×10e6 cells per well in a 6-well plate and incubated for 6 h. Cells were transiently transfected with FLT3ss-Gluc using Lipofectamine 2000 (Invitrogen). After overnight incubation, transfected cells were replated in a clear-bottomed, black 96-well plate at a density of 20,000 cells per well. Six hours after plating, the cells were treated with doxycycline (1 μg/ml) and increasing concentrations of the indicated compounds for 24 h. Secreted luciferase in the conditioned media was quantified by luminescence using the BioLux Gaussia Luciferase Assay Kit (New England Biolabs, Ipswich, Mass., USA) and a SpectraMax M5 plate reader (Molecular Devices).

IL7Rss-Gluc = assay: IL7Rss assay
Protocol: as §1, with “The mature domain of secreted luciferase from Gaussia princeps (GLuc) was cloned into pcDNA5/FRT/TO. The signal sequence plus four amino acids of the mature domain from IL7R ([…]) (SEQ ID NO:6) were cloned upstream of GLuc mature domain and used in transient transfection experiment. HEK-293T” for “HEK-293T”, “IL7Rss-Gluc” for “FLT3ss-Gluc”

[3] = tested on: BT474 breast tumor cell line; assay: BT474 assay (Alamar blue); conditions: Homo sapiens, BT-474, 72 h
Procedure, shortened: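 For both lines, 5000 cells/well were exposed to compound or a 1% DMSO-medium control for 72 h unless otherwise specified. Signal was normalized to the DMSO control.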

[4] = tested on: U266B1 multiple myeloma cell line; assay: U266 assay (cell viability, Celltiter-Glo); conditions: Homo sapiens, U-266; 48 hours, cell viability
Protocol: Cells were plated in 384-well tissue culture plates and treated with compound dilutions in DMSO/media. Plates were incubated at 37° C., 5% CO2 for 48 hours. After 48 hours, Celltiter-Glo@ (Promega) was added to each well and luciferase signal was quantified using Tecan Infinite M1000 Pro for cell viability determination.

[5] = tested on: NCI-H929 multiple myeloma cell line; assay: H929 assay (cell viability, Celltiter-Glo); conditions: Homo sapiens, NCI-H929; 48 hours, cell viability; read-out: H929 EC50
Procedure, shortened: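 Cells plated in RPMI 1640 with 10% FBS and 2 mM glutamine, treated with compound dilutions in DMSO/media. Incubation 48 h at 37° C, 5% CO2. Viability from luciferase luminescence signal.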

| SMILES | IC50 [1] | IC50 [2] | IC50 (FLT3ss-Gluc; read-out: FLT3ss IC50; HEK-293T T-rex cells, transient transfection, doxycycline, 24 h) | IC50 (IL7Rss-Gluc; read-out: IL7Rss IC50; HEK-293T T-rex cells, transient transfection, doxycycline, 24 h) | EC50 [3] | EC50 [4] | EC50 [5] | IC50 (FLT3ss-Gluc; HEK-293T T-rex cells, transient transfection, doxycycline, 24 h; read-out: FLT3ss IC50) | IC50 (IL7Rss-Gluc; HEK-293T T-rex cells, transient transfection, doxycycline, 24 h; read-out: IL7Rss IC50) |
| --- | --- | --- | --- | --- | --- | --- | --- | --- | --- |
| C#CC[C@H]1OC(=O)[C@H](C)N(C)C(C)[C@H](C[C@H](C)CCCC)NC(=O)[C@H](Cc2ccccc2)N(C)C(=O)[C@H](CC(C)C)NC(=O)[C@H](CC(C)C)N(C)C(=O)[C@H](C[C@H](C)CCCC)NC1=O (some centres unmarked) [C-01] | 56 nM | 79 nM | 52 nM | 23 nM | 730 nM | 23500 nM | 454 nM |  |  |
| CC(C)C[C@@H]1NC(=O)[C@H](Cc2cn(Cc3ccccc3)c3ccccc23)N(C)C(=O)[C@H](CC(C)C)NC(=O)[C@H](CC(C)C)N(C)C(=O)[C@H](CC(C)C)NC(=O)[C@@H](CCC#N)OC(=O)[C@H](C)N(C)C1=O [C-16] (HELM PEPTIDE1{L.[meA].[N#CCC[C@@H](O[*:1])C(=O)[*:2]].L.[meL].L.[CN([C@@H](Cc1cn(Cc2ccccc2)c2ccccc12)C(=O)[*:2])[*:1]]}$PEPTIDE1,PEPTIDE1,1:R1-7:R2$$$V2.0) | 27 nM | 92 nM |  |  | 745 nM | 13400 nM | 941 nM | 32 nM | 10 nM |
